Source: patent US20160095843A1, “PYRAZOLOPYRROLIDINE DERIVATIVES AND THEIR USE IN THE TREATMENT OF DISEASE” (NOVARTIS AG, priority 2013, published 2016)

Assays:
MV-4-11 cells = assay: Cell growth inhibition assay (CellTiter-Glo), MV-4-11; format: cell-based; conditions: Homo sapiens, MV4-11
How it was run: (§1)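 Leukemia lines grown in their own media were exposed for 4 days at 37° C. to 3-fold serial dilutions from 10 μM (0.1% DMSO). Viability by CellTiter-Glo ATP luminescence, corrected for background and day-0 plate; IC50 and TGI from four-parameter fit against vehicle (100%) and medium (−100%).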

K-562 cells = assay: Cell growth inhibition assay (CellTiter-Glo), K-562; format: cell-based, human; conditions: Homo sapiens, K562
How it was run: as §1

THP-1 cells = assay: Cell growth inhibition assay (CellTiter-Glo), THP-1; format: cell-based; conditions: Homo sapiens
How it was run: as §1

| GI50 (MV-4-11 cells) [nM] | GI50 (K-562 cells) [nM] | GI50 (THP-1 cells) [nM] | SMILES |
| --- | --- | --- | --- |
| 117 | 574 | 161 | Cc1cc(N2C(=O)c3nn(C4COC4)c(C)c3C2c2ccc(Cl)cc2)cn(C)c1=O (stereo not drawn) [Example 134, 4-(4-chlorophenyl)-5-(1,5-dimethyl-6-oxo-1,6-dihydropyridin-3-yl)-3-methyl-2-(oxetan-3-yl)-4,5-dihydropyrrolo[3,4-c]pyrazol-6(2H)-one] |
| 79.9 | 616 | 86.1 | Cc1nn(C2COC2)c2c1C(c1ccc(Cl)cc1)N(c1cc(C)c(=O)n(C)c1)C2=O (stereo not drawn) [Example 135, 4-(4-chlorophenyl)-5-(1,5-dimethyl-6-oxo-1,6-dihydropyridin-3-yl)-3-methyl-1-(oxetan-3-yl)-4,5-dihydropyrrolo-[3,4-c]pyrazol-6(1H)-one] |
| 28.2 | 335 | 80.2 | Cc1cc(N2C(=O)c3nn(C4COC4)c(C)c3C2c2ccc(Cl)cc2)cn2c(C)nnc12 (stereo not drawn) [Example 136, 4-(4-chlorophenyl)-5-(3,8-dimethyl-[1,2,4]triazolo[4,3-a]pyridin-6-yl)-3-methyl-2-(oxetan-3-yl)-4,5-dihydropyrrolo-[3,4-c]pyrazol-6(2H)-one] |
| 23.1 | 248 | 64 | Cc1nn(C2COC2)c2c1C(c1ccc(Cl)cc1)N(c1cc(C)c3nnc(C)n3c1)C2=O (stereo not drawn) [Example 137, 4-(4-chlorophenyl)-5-(3,8-dimethyl-[1,2,4]triazolo[4,3-a]pyridin-6-yl)-3-methyl-1-(oxetan-3-yl)-4,5-dihydropyrrolo[3,4-c]pyrazol-6(1H)-one] |
| 251 | 2060 | 904 | Cc1nn(C2CNC2)c2c1C(c1ccc(Cl)cc1)N(c1cc(C)c(=O)n(C)c1)C2=O (stereo not drawn) [Example 138, 1-(azetidin-3-yl)-4-(4-chlorophenyl)-5-(1,5-dimethyl-6-oxo-1,6-dihydropyridin-3-yl)-3-methyl-4,5-dihydropyrrolo[3,4-c]pyrazol-6(1H)-one] |
| 72.9 | 591 | 190 | Cc1cc(N2C(=O)c3nn(C4CN(C)C4)c(C)c3C2c2ccc(Cl)cc2)cn(C)c1=O (stereo not drawn) [Example 139, 4-(4-chlorophenyl)-5-(1,5-dimethyl-6-oxo-1,6-dihydropyridin-3-yl)-3-methyl-2-(1-methylazetidin-3-yl)-4,5-dihydropyrrolo-[3,4-c]pyrazol-6(2H)-one] |
| 106 | 1370 | 392 | Cc1nn(C2CN(C)C2)c2c1C(c1ccc(Cl)cc1)N(c1cc(C)c(=O)n(C)c1)C2=O (stereo not drawn) [Example 140, 4-(4-chlorophenyl)-5-(1,5-dimethyl-6-oxo-1,6-dihydropyridin-3-yl)-3-methyl-1-(1-methylazetidin-3-yl)-4,5-dihydropyrrolo-[3,4-c]pyrazol-6(1H)-one] |
| 136 | 1190 | 281 | Cc1cc(N2C(=O)c3nn(C(=O)N(C)C)c(C)c3C2c2ccc(Cl)cc2)cn(C)c1=O (stereo not drawn) [Example 141] |
| 79.3 | 712 | 239 | Cc1nn(C(=O)N(C)C)c2c1C(c1ccc(Cl)cc1)N(c1cc(C)c(=O)n(C)c1)C2=O (stereo not drawn) [Example 142] |
| 86 | 1200 | 300 | CNC(=O)n1nc(C)c2c1C(=O)N(c1cc(C)c(=O)n(C)c1)C2c1ccc(Cl)cc1 (stereo not drawn) [Example 143, 4-(4-chlorophenyl)-5-(1,5-dimethyl-6-oxo-1,6-dihydropyridin-3-yl)-N,3-dimethyl-6-oxo-5,6-dihydropyrrolo-[3,4-c]pyrazole-1(4H)-carboxamide] |
| 59.8 | 432 | 214 | CNC(=O)n1nc2c(c1C)C(c1ccc(Cl)cc1)N(c1cc(C)c(=O)n(C)c1)C2=O (stereo not drawn) [Example 144, 4-(4-chlorophenyl)-5-(1,5-dimethyl-6-oxo-1,6-dihydropyridin-3-yl)-N,3-dimethyl-6-oxo-5,6-dihydropyrrolo-[3,4-c]pyrazole-2(4H)-carboxamide] |
| 49.9 | 875 | 176 | CNC(=O)n1nc(C)c2c1C(=O)N(c1cc(C)c3nnc(C)n3c1)C2c1ccc(Cl)cc1 (stereo not drawn) [Example 145, 4-(4-chlorophenyl)-5-(3,8-dimethyl-[1,2,4]triazolo[4,3-a]pyridin-6-yl)-N,3-dimethyl-6-oxo-5,6-dihydropyrrolo[3,4-c]pyrazole-1(4H)-carboxamide] |
| 39.2 | 314 | 150 | CNC(=O)n1nc2c(c1C)C(c1ccc(Cl)cc1)N(c1cc(C)c3nnc(C)n3c1)C2=O (stereo not drawn) [Example 146, 4-(4-chlorophenyl)-5-(3,8-dimethyl-[1,2,4]triazolo[4,3-a]pyridin-6-yl)-N,3-dimethyl-6-oxo-5,6-dihydropyrrolo[3,4-c]pyrazole-2(4H)-carboxamide] |
| 67 | 792 | 157 | CCc1nn(C(=O)N(C)C)c2c1C(c1ccc(Cl)cc1)N(c1cc(C)c(=O)n(C)c1)C2=O (stereo not drawn) [Example 147, 4-(4-chlorophenyl)-5-(1,5-dimethyl-6-oxo-1,6-dihydropyridin-3-yl)-3-ethyl-N,N-dimethyl-6-oxo-5,6-dihydropyrrolo[3,4-c]pyrazole-1(4H)-carboxamide] |
| 81.7 | 1130 | 157 | CCc1c2c(nn1C(=O)N(C)C)C(=O)N(c1cc(C)c(=O)n(C)c1)C2c1ccc(Cl)cc1 (stereo not drawn) [Example 148, 4-(4-chlorophenyl)-5-(1,5-dimethyl-6-oxo-1,6-dihydropyridin-3-yl)-3-ethyl-N,N-dimethyl-6-oxo-5,6-dihydropyrrolo-[3,4-c]pyrazole-2(4H)-carboxamide] |
| 28 | 348 | 68.8 | Cc1nn(C(=O)N(C)C)c2c1[C@@H](c1ccc(Cl)cc1)N(c1cc(C)c3nnc(C)n3c1)C2=O [Example 149, (R)-4-(4-chlorophenyl)-5-(3,8-dimethyl-[1,2,4]triazolo[4,3-a]pyridin-6-yl)-N,N,3-trimethyl-6-oxo-5,6-dihydropyrrolo-[3,4-c]pyrazole-1(4H)-carboxamide] |
| 55.5 | 406 | 101 | Cc1cc(N2C(=O)c3nn(C(=O)N(C)C)c(C)c3[C@H]2c2ccc(Cl)cc2)cn2c(C)nnc12 [Example 150, (R)-4-(4-chlorophenyl)-5-(3,8-dimethyl-[1,2,4]triazolo[4,3-a]pyridin-6-yl)-N,N,3-trimethyl-6-oxo-5,6-dihydropyrrolo-[3,4-c]pyrazole-2(4H)-carboxamide] |
| 226 | 2610 | 778 | Cc1nn(C2CNC2)c2c1C(c1ccc(Cl)cc1)N(c1cc(C)c3nnc(C)n3c1)C2=O (stereo not drawn) [Example 151, 1-(azetidin-3-yl)-4-(4-chlorophenyl)-5-(3,8-dimethyl-[1,2,4]triazolo[4,3-a]pyridin-6-yl)-3-methyl-4,5-dihydropyrrolo[3,4-c]pyrazol-6(1H)-one] |
| 438 | 4330 | 2600 | Cc1cc(N2C(=O)c3nn(C4CNC4)c(C)c3C2c2ccc(Cl)cc2)cn2c(C)nnc12 (stereo not drawn) [Example 152, 2-(azetidin-3-yl)-4-(4-chlorophenyl)-5-(3,8-dimethyl-[1,2,4]triazolo[4,3-a]pyridin-6-yl)-3-methyl-4,5-dihydropyrrolo[3,4-c]pyrazol-6(2H)-one] |
| 115 | 925 | 229 | CC(=O)N1CC(n2nc(C)c3c2C(=O)N(c2cc(C)c(=O)n(C)c2)C3c2ccc(Cl)cc2)C1 (stereo not drawn) [Example 153, 1-(1-acetylazetidin-3-yl)-4-(4-chlorophenyl)-5-(1,5-dimethyl-6-oxo-1,6-dihydropyridin-3-yl)-3-methyl-4,5-dihydropyrrolo[3,4-c]pyrazol-6(1H)-one] |
| 59 | 956 | 243 | CC(=O)N1CC(n2nc(C)c3c2C(=O)N(c2cc(C)c4nnc(C)n4c2)C3c2ccc(Cl)cc2)C1 (stereo not drawn) [Example 154, 1-(1-acetylazetidin-3-yl)-4-(4-chlorophenyl)-5-(3,8-dimethyl-[1,2,4]triazolo[4,3-a]pyridin-6-yl)-3-methyl-4,5-dihydropyrrolo[3,4-c]pyrazol-6(1H)-one] |
| 73.4 | 638 | 120 | CCOC(=O)N1CC(n2nc(C)c3c2C(=O)N(c2cc(C)c(=O)n(C)c2)C3c2ccc(Cl)cc2)C1 (stereo not drawn) [Example 155, Ethyl 3-(4-(4-chlorophenyl)-5-(1,5-dimethyl-6-oxo-1,6-dihydropyridin-3-yl)-3-methyl-6-oxo-5,6-dihydropyrrolo[3,4-c]pyrazol-1(4H)-yl)azetidine-1-carboxylate] |
| 35.6 | 374 | 69.6 | CCOC(=O)N1CC(n2nc(C)c3c2C(=O)N(c2cc(C)c4nnc(C)n4c2)C3c2ccc(Cl)cc2)C1 (stereo not drawn) [Example 156, Ethyl 3-(4-(4-chlorophenyl)-5-(3,8-dimethyl-[1,2,4]triazolo[4,3-a]pyridin-6-yl)-3-methyl-6-oxo-5,6-dihydropyrrolo[3,4-c]pyrazol-1(4H)-yl)azetidine-1-carboxylate] |
| 50 | 534 | 158 | Cc1nn(C2CN(C)C2)c2c1C(c1ccc(Cl)cc1)N(c1cc(C)c3nnc(C)n3c1)C2=O (stereo not drawn) [Example 157, 4-(4-chlorophenyl)-5-(3,8-dimethyl-[1,2,4]triazolo[4,3-a]pyridin-6-yl)-3-methyl-1-(1-methylazetidin-3-yl)-4,5-dihydropyrrolo[3,4-c]pyrazol-6(1H)-one] |
| 26.6 | 484 | 142 | Cc1cc(N2C(=O)c3nn(C4CN(C)C4)c(C)c3C2c2ccc(Cl)cc2)cn2c(C)nnc12 (stereo not drawn) [Example 158, 4-(4-chlorophenyl)-5-(3,8-dimethyl-[1,2,4]triazolo[4,3-a]pyridin-6-yl)-3-methyl-2-(1-methylazetidin-3-yl)-4,5-dihydropyrrolo-[3,4-c]pyrazol-6(2H)-one] |
